According to paper PMC10418939, “Synthesis, ^123I-Radiolabeling Optimization, and Initial Preclinical Evaluation of Novel Urea-Based PSMA Inhibitors with a Tributylstannyl Prosthetic Group in Their Structures” (International Journal of Molecular Sciences, 2023):
Read-outs that look alike come from different tables or passages of the source.

Key:
[1] = NCr nude mice bearing LNCaP xenografts, cited from earlier work; for accumulation in the liver: 4 h after injection; for accumulation in the kidney: after 4 h
From the text: The uptake of [^123I]PSMA-p-IB in normal organs, except in the salivary gland, gastrointestinal tract, and body, were low. […] This value was correlated with PSMA-p-IB that had been ^123I-labeled, which is non-residualizi ...

[2] = In vivo biodistribution in normal mice; set-up: activity in the whole gastrointestinal tract (with contents): unit not given here; conditions: female CD1 mice, i.v. tail vein, 80 pmol, 4 h p.i.
Description: The mice were sacrificed at 4 h post-injection (p.i.) by cervical dislocation. A side-by-side comparison of the biodistribution of [^123I]PSMA-p-IB and [^177Lu]Lu-PSMA-617 in normal mice is shown in Figure 11. Biodistribution of [^123I]PSMA-p-IB at 4 h p.i. in CD1 mice reflects a low level of accumulation in almost all normal organs, except in the salivary gland, gastrointestinal tract, and the rest of the body. There were significant differences between the uptake of [^123I]PSMA-p-IB and [^177Lu]Lu-PSMA-617 in several normal organs. Low accumulation of both ligands was detected in muscle and bone. However, it was determined that the uptake of [^177Lu]Lu-PSMA-617 in muscle (0.1 ± 0.1 %ID/g) was noticeably lower than that of [^123I]PSMA-p-IB (0.2 ± 0.0 %ID/g). […] The activity of [^123I]PSMA-p-IB in blood was 1.3 ± 0.5 %ID/g. […] The activity in the blood for [^123I]PSMA-p-IB experiment was associated with […] labeled with ^123I, which is non-residualizing and is thought to result in the rapid excretion of radiometabolites. Additionally, this ligand lipophilicity might lead it to bind to proteins in the blood. […] This value was clearly higher than the [^177Lu]Lu-PSMA-617 accumulation in the same organ of 0.1 ± 0.0 %ID/g. This [^123I]PSMA-p-IB accumulation could be due to radioiodine catabolites. The activity in the whole gastrointestinal tract (with contents) and small intestine for [^123I]PSMA-p-IB was 12.4 ± 0.8 and 1.1 ± 0.2 %ID/g, respectively. Meanwhile, the activity of [^177Lu]Lu-PSMA-617 in the whole gastrointestinal tract (with contents) and small intestine was 1.2 ± 0.8 and 0.2 ± 0.1 %ID/g, respectively.
Remarkable results were observed whereby the accumulation of [^123I]PSMA-p-IB (0.9 ± 0.1 %ID/g) in the liver was substantially lower than that of [^177Lu]Lu-PSMA-617 (2.3 ± 0.2 %ID/g).
The biodistribution of [^123I]PSMA-p-IB and [^177Lu]Lu-PSMA-617 in normal mice was evaluated in 8 female CD1 mice (2 groups) of 6 weeks of age with an average weight of 31.8 ± 3.6 g. The mice were housed and cared for under standard conditions prior to use. Four mice were each injected intravenously through the tail vein with 40 kBq (80 pmol) of [^123I]PSMA-p-IB in 100 μL PBS with 10% ethanol. The remaining 4 mice were intravenously (i.v.) injected with 130 kBq (80 pmol) of [^177Lu]Lu-PSMA-617 in 100 μL PBS with 1% BSA per mouse. The mice were sacrificed 4 h after injection. Cervical dislocation was employed to sacrifice the anesthetized mice. The blood, tissues, and organs (salivary gland, lung, liver, spleen, small intestine, kidney, muscle, and bone) were excised, collected, and weighed. The ^123I and ^177Lu activities were simultaneously measured using a gamma-counter. The activity uptake was expressed as the percentage of injected activity per gram of organ (%ID/g).
Figure 11 Biodistribution of [^123I]PSMA-p-IB and […] in CD1 mice 4 h post-injection (p.i.). Data for the gastrointestinal tract (including the contents) and the body are presented as the %ID per whole sample. ns indicates p > 0.05, * indicates p ≤ 0.05, ** indicates p ≤ 0.01, *** indicates p ≤ 0.001 and **** indicates p ≤ 0.0001. The comparison study was performed by unpaired 2-tailed t-tests (95% confidence interval).

| Molecule | accumulation in the liver [1] [%ID/g] | accumulation in the kidney [1] [%ID/g] | accumulation in bone ([2]; n = 4, gamma counter) [%ID/g] | accumulation in salivary glands ([2]; n = 4, gamma counter) [%ID/g] | accumulation in the liver ([2]; n = 4, gamma counter) [%ID/g] | activity in blood ([2]; n = 4, gamma counter) [%ID/g] | activity in small intestine ([2]; n = 4, gamma counter) [%ID/g] | uptake in muscle ([2]; n = 4, gamma counter) [%ID/g] | uptake in the kidney ([2]; n = 4, gamma counter) [%ID/g] | activity in the whole gastrointestinal tract (with contents) ([2]; n = 4, Figure 11 legend: %ID per whole sample) |
| --- | --- | --- | --- | --- | --- | --- | --- | --- | --- | --- |
| O=C(O)CC[C@H](NC(=O)N[C@@H](CCCCNCc1ccc([123I])cc1)C(=O)O)C(=O)O [[^123I]MIP-1072] | 2.17 ± 0.67 | 35.7 ± 18.7 | – | – | – | – | – | – | – | – |
| [^177Lu]Lu-PSMA-617 | – | – | 0.6 ± 0.1 | 0.1 ± 0.0 | 2.3 ± 0.2 | 0.1 ± 0.0 | 0.2 ± 0.1 | 0.1 ± 0.1 | 6.1 ± 3.7 | 1.2 ± 0.8 |
| O=C(O)CC[C@H](NC(=O)N[C@@H](CCCCNC(=O)Nc1ccc([123I])cc1)C(=O)O)C(=O)O [[^123I]MIP-1095] | 7.82 ± 1.01 | 77.5 ± 16.5 | – | – | – | – | – | – | – | – |
